Results: ChEMBL document CHEMBL1201862, “PubChem BioAssay data set” (2004)
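Results reflect a 48-hour exposure of cells in 96-well plates to compound at five concentrations. GI50 is the concentration that inhibits growth by half.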 Calls of active or inactive are those of the source. Rule as the data show it: active = GI50 up to about 1.1 µM and inactive = higher.

Assays:
Test in all cases: NCI anticancer screen, dose series, 48 h
[1] = test system: A498
[2] = test system: DU-145
[3] = test system: HCT-15
[4] = test system: K562
[5] = test system: KM12
[6] = test system: M14
[7] = test system: MCF7
[8] = test system: Malme-3M
[9] = test system: NCI-H522
[10] = test system: NCI/ADR-RES
[11] = test system: OVCAR-3
[12] = test system: OVCAR-5
[13] = test system: OVCAR-8
[14] = test system: RXF 393
[15] = test system: SF-295
[16] = test system: SNB-19
[17] = test system: SR
[18] = test system: TK-10
[19] = test system: UACC-257

SMILES: CCOC(=O)/C=C(/C(=O)OCC)n1ccc(=O)[nH]c1=O
- GI50 [1]: 20.6 µM (inactive)
- GI50 [2]: 15.5 µM (inactive)
- GI50 [3]: 3.08 µM
- GI50 [4]: 2.23 µM (inactive)
- GI50 [5]: 17.6 µM (inactive)
- GI50 [6]: 3.83 µM (inactive)
- GI50 [7]: 4.19 µM (inactive)
- GI50 [8]: 1.9 µM (inactive)
- GI50 [9]: 0.726 µM (active)
- GI50 [10]: 15.5 µM (inactive)
- GI50 [11]: 3.59 µM (inactive)
- GI50 [12]: 5.93 µM (inactive)
- GI50 [13]: 13 µM (inactive)
- GI50 [14]: 4.21 µM (inactive)
- GI50 [15]: 18.7 µM (inactive)
- GI50 [16]: 15.4 µM (inactive)
- GI50 [17]: 4.36 µM (inactive)
- GI50 [18]: 3.73 µM (inactive)
- GI50 [19]: 12.6 µM (inactive)

SMILES: c1ccc(C(NCC2CCO2)(c2ccccc2)c2ccccc2)cc1 (centres undefined)
- GI50 [1]: 19.2 µM (inactive)
- GI50 [2]: 27.7 µM (inactive)
- GI50 [3]: 16.4 µM
- GI50 [4]: 34.1 µM (inactive)
- GI50 [5]: 15 µM (inactive)
- GI50 [6]: 17.1 µM (inactive)
- GI50 [7]: 16.8 µM (inactive)
- GI50 [8]: 18.7 µM (inactive)
- GI50 [9]: 13.5 µM (inactive)
- GI50 [10]: 14.1 µM (inactive)
- GI50 [11]: 18.5 µM (inactive)
- GI50 [12]: 15.7 µM (inactive)
- GI50 [13]: 12.6 µM (inactive)
- GI50 [14]: 18.2 µM (inactive)
- GI50 [15]: 15.1 µM (inactive)
- GI50 [16]: 13.7 µM (inactive)
- GI50 [17]: 36.3 µM (inactive)
- GI50 [18]: 13.8 µM (inactive)
- GI50 [19]: 19.4 µM (inactive)

SMILES: CC(=O)OCc1cc(CCC(=O)NCCNc2c3ccccc3nc3ccccc23)cc(COC(C)=O)c1O[Si](C)(C)C(C)(C)C
- GI50 [1]: 1.91 µM (inactive)
- GI50 [2]: 12.1 µM (inactive)
- GI50 [3]: 14.4 µM
- GI50 [4]: 2.65 µM (inactive)
- GI50 [5]: 2.95 µM (inactive)
- GI50 [6]: 5.26 µM (inactive)
- GI50 [7]: 2.2 µM (inactive)
- GI50 [8]: 6.25 µM (inactive)
- GI50 [9]: 5.5 µM (inactive)
- GI50 [10]: 20.7 µM (inactive)
- GI50 [11]: 2 µM (inactive)
- GI50 [12]: 13.4 µM (inactive)
- GI50 [13]: 13.8 µM (inactive)
- GI50 [14]: 3.48 µM (inactive)
- GI50 [15]: 2.67 µM (inactive)
- GI50 [16]: 11.1 µM (inactive)
- GI50 [17]: 2.21 µM (inactive)
- GI50 [18]: 7.46 µM (inactive)
- GI50 [19]: 4.36 µM (inactive)

SMILES: CCOC(=O)/C1=C(\C)N(c2ccc(C)cc2)C(=O)c2ccccc2C(=O)c2c(OC(C)=O)ccc(OC(C)=O)c21
- GI50 [1]: 67.1 µM (inactive)
- GI50 [2]: 31.8 µM (inactive)
- GI50 [3]: 16.4 µM
- GI50 [4]: 16.1 µM (inactive)
- GI50 [5]: 15 µM (inactive)
- GI50 [6]: 18.4 µM (inactive)
- GI50 [7]: 26.1 µM (inactive)
- GI50 [8]: 28.1 µM (inactive)
- GI50 [9]: 20.7 µM (inactive)
- GI50 [10]: 19.2 µM (inactive)
- GI50 [11]: 16.5 µM (inactive)
- GI50 [12]: 21.9 µM (inactive)
- GI50 [13]: 36.8 µM (inactive)
- GI50 [14]: 22.2 µM (inactive)
- GI50 [15]: 14.5 µM (inactive)
- GI50 [16]: 25.2 µM (inactive)
- GI50 [17]: 15.8 µM (inactive)
- GI50 [18]: 19.3 µM (inactive)
- GI50 [19]: 21.8 µM (inactive)

SMILES: COc1c(C)c2nc3ccccc3nc2c2c(O)ccnc12
- GI50 [1]: 43.3 µM (inactive)
- GI50 [2]: 34 µM (inactive)
- GI50 [3]: > 100 µM
- GI50 [4]: > 100 µM (inactive)
- GI50 [5]: > 100 µM (inactive)
- GI50 [6]: > 100 µM (inactive)
- GI50 [7]: > 100 µM (inactive)
- GI50 [8]: > 100 µM (inactive)
- GI50 [9]: 71.3 µM (inactive)
- GI50 [10]: > 100 µM (inactive)
- GI50 [11]: > 100 µM (inactive)
- GI50 [12]: > 100 µM (inactive)
- GI50 [13]: 50.5 µM (inactive)
- GI50 [14]: 19.3 µM (inactive)
- GI50 [15]: 43.2 µM (inactive)
- GI50 [16]: 36.6 µM (inactive)
- GI50 [17]: > 100 µM (inactive)
- GI50 [18]: 64.4 µM (inactive)
- GI50 [19]: > 100 µM (inactive)

SMILES: O=C1NC2CCCCC2NC1=C(C(=O)c1ccccc1)C(=O)c1ccccc1 (centres undefined)
- GI50 [1]: > 100 µM (inactive)
- GI50 [2]: > 100 µM (inactive)
- GI50 [3]: 23.3 µM
- GI50 [4]: 35.5 µM (inactive)
- GI50 [5]: 42.7 µM (inactive)
- GI50 [6]: 66.4 µM (inactive)
- GI50 [7]: 16.9 µM (inactive)
- GI50 [8]: > 100 µM (inactive)
- GI50 [9]: 18.9 µM (inactive)
- GI50 [10]: 29.2 µM (inactive)
- GI50 [11]: 67.5 µM (inactive)
- GI50 [12]: > 100 µM (inactive)
- GI50 [13]: 25.5 µM (inactive)
- GI50 [14]: > 100 µM (inactive)
- GI50 [15]: 40.8 µM (inactive)
- GI50 [16]: 65.9 µM (inactive)
- GI50 [17]: 27.2 µM (inactive)
- GI50 [18]: 84.1 µM (inactive)
- GI50 [19]: 95.7 µM (inactive)

SMILES: Cc1c(S(=O)(=O)N/C(N)=N/c2ccc(Cl)cc2)sc2ccc(Cl)cc12
- GI50 [1]: 15.6 µM (inactive)
- GI50 [2]: 18.5 µM (inactive)
- GI50 [3]: 19.4 µM
- GI50 [4]: 36.2 µM (inactive)
- GI50 [5]: 28.1 µM (inactive)
- GI50 [6]: 17.3 µM (inactive)
- GI50 [7]: 17.8 µM (inactive)
- GI50 [8]: 17.1 µM (inactive)
- GI50 [9]: 14 µM (inactive)
- GI50 [10]: 19.5 µM (inactive)
- GI50 [11]: 18.2 µM (inactive)
- GI50 [12]: 18.8 µM (inactive)
- GI50 [13]: 19.3 µM (inactive)
- GI50 [14]: 48.6 µM (inactive)
- GI50 [15]: 20.7 µM (inactive)
- GI50 [16]: 21.4 µM (inactive)
- GI50 [17]: 47.3 µM (inactive)
- GI50 [18]: 19.9 µM (inactive)
- GI50 [19]: 18.1 µM (inactive)

SMILES: CN1CCc2c(sc3ncn(N)c(=N)c23)C1
- GI50 [1]: > 100 µM (inactive)
- GI50 [2]: > 100 µM (inactive)
- GI50 [3]: > 100 µM
- GI50 [4]: > 100 µM (inactive)
- GI50 [5]: > 100 µM (inactive)
- GI50 [6]: > 100 µM (inactive)
- GI50 [7]: > 100 µM (inactive)
- GI50 [8]: > 100 µM (inactive)
- GI50 [9]: 45.7 µM (inactive)
- GI50 [10]: > 100 µM (inactive)
- GI50 [11]: > 100 µM (inactive)
- GI50 [12]: > 100 µM (inactive)
- GI50 [13]: > 100 µM (inactive)
- GI50 [14]: > 100 µM (inactive)
- GI50 [15]: > 100 µM (inactive)
- GI50 [16]: > 100 µM (inactive)
- GI50 [17]: 63.8 µM (inactive)
- GI50 [18]: > 100 µM (inactive)
- GI50 [19]: > 100 µM (inactive)

SMILES: c1ccc(CCN(Cc2nc3ccccc3[nH]2)Cc2nc3ccccc3[nH]2)cc1
- GI50 [1]: 13.6 µM (inactive)
- GI50 [2]: 14.4 µM (inactive)
- GI50 [3]: 7.45 µM
- GI50 [4]: 2.86 µM (inactive)
- GI50 [5]: 12.3 µM (inactive)
- GI50 [6]: 12.9 µM (inactive)
- GI50 [7]: 11.7 µM (inactive)
- GI50 [8]: 21.6 µM (inactive)
- GI50 [9]: 17 µM (inactive)
- GI50 [10]: 5.93 µM (inactive)
- GI50 [11]: 20.2 µM (inactive)
- GI50 [12]: 23.8 µM (inactive)
- GI50 [13]: 6.18 µM (inactive)
- GI50 [14]: 13.3 µM (inactive)
- GI50 [15]: 14.8 µM (inactive)
- GI50 [16]: 16.2 µM (inactive)
- GI50 [17]: 9.27 µM (inactive)
- GI50 [18]: 16.3 µM (inactive)
- GI50 [19]: 14.5 µM (inactive)

SMILES: CSC1=C(C(=O)N(COCC[Si](C)(C)C)c2ccccc2Br)CCC(C(C)(C)C)C1 (centres undefined)
- GI50 [1]: 28.1 µM (inactive)
- GI50 [2]: 22.4 µM (inactive)
- GI50 [3]: 11.7 µM
- GI50 [4]: 8.28 µM (inactive)
- GI50 [5]: 14.2 µM (inactive)
- GI50 [6]: 13.1 µM (inactive)
- GI50 [7]: 10.6 µM (inactive)
- GI50 [8]: 16.6 µM (inactive)
- GI50 [9]: 7.78 µM (inactive)
- GI50 [10]: 13.7 µM (inactive)
- GI50 [11]: 10.7 µM (inactive)
- GI50 [12]: 14.4 µM (inactive)
- GI50 [13]: 17.8 µM (inactive)
- GI50 [14]: 9.79 µM (inactive)
- GI50 [15]: 9.64 µM (inactive)
- GI50 [16]: 18.5 µM (inactive)
- GI50 [17]: 3.42 µM (inactive)
- GI50 [18]: 23.5 µM (inactive)
- GI50 [19]: 9.77 µM (inactive)

SMILES: Cc1ccc(NCC2CC/C(=C\c3ccc(Cl)cc3)C2=O)cc1 (centres undefined)
- GI50 [1]: 30.7 µM (inactive)
- GI50 [2]: 30.1 µM (inactive)
- GI50 [3]: 1.94 µM
- GI50 [4]: 1.74 µM (inactive)
- GI50 [5]: 5.66 µM (inactive)
- GI50 [6]: 13.4 µM (inactive)
- GI50 [7]: 2.83 µM (inactive)
- GI50 [8]: 18 µM (inactive)
- GI50 [9]: 7.38 µM (inactive)
- GI50 [10]: 33.7 µM (inactive)
- GI50 [11]: 14.3 µM (inactive)
- GI50 [12]: 22 µM (inactive)
- GI50 [13]: 15.9 µM (inactive)
- GI50 [14]: 17 µM (inactive)
- GI50 [15]: 28.1 µM (inactive)
- GI50 [16]: 21.2 µM (inactive)
- GI50 [17]: 3.87 µM (inactive)
- GI50 [18]: 11.3 µM (inactive)
- GI50 [19]: 17.4 µM (inactive)
